Patent publication US8334236B2, “Ring-fused 2-pyridone derivatives and herbicides” (Kumiai Chemical Industry Co., Ltd., priority 2009, dated 2012)

Legend:
Format in all cases: in vivo
Set-up in all cases: scale not given here
Echinochloa crus-galli = test: Test Example 2: herbicidal effects in farmland soil treatment; conditions: 1000 g active ingredient per hectare, 21st day after treatment
[1] = test system: Scirpus juncoides Roxb. var. ohwianus. T. Koyama; test: Test Example 1: herbicidal effects in paddy field soil treatment; conditions: 1000 g active ingredient per hectare, 21st day after treatment
Protocol: (§1) 100-cm^2 plastic pots were filled with paddy field soil. After puddling and leveling, seeds of Echinochloa oryzicola Vasing, Monochoria vaginalis (Burm. f.) Presl var. plantaginea (Roxb.) Solms-Laub., and Scirpus juncoides Roxb. var. ohwianus. T. Koyama were sowed in the pots, and the soil was waterlogged to a water depth of 3 cm. On the next day, a wettable powder formulation prepared according to Formulation Example 1 was diluted with water, and the dilution was added dropwise onto the water surface. The amount of application was an amount equivalent to 1000 g of the active ingredient per hectare. Thereafter, the plants were grown in a greenhouse, and on the 21st day after the treatment, the herbicidal effects were investigated according to the criteria described in Table 71.
(§2) In addition, comparative compound A, comparative compound B, comparative compound C, and comparative compound D in the tables represent Compound Nos. 70, 34, 32, and 31, respectively, as described in EP-283261. The structural formulas of these compounds are presented below.

[2] = test system: Monochoria vaginalis (Burm. f.) Presl var. plantaginea (Roxb.) Solms-Laub.; test: as above; conditions: 1000 g active ingredient per hectare, 21st day after treatment
Protocol: as §1, §2

[3] = test system: Echinochloa oryzicola Vasing; test: as above; conditions: 1000 g active ingredient per hectare, 21st day after treatment
Protocol: as §1, §2

Setaria viridis [4] = test: Test Example 2: herbicidal effects in farmland soil treatment; conditions: 1000 g active ingredient per hectare, 21st day after treatment
Amaranthus retroflexus [5] = test: Test Example 3: herbicidal effects in farmland foliar treatment; conditions: 1000 g active ingredient per hectare, 14th day after treatment
Protocol: (§3) 80-cm^2 plastic pots were filled with farmland soil. Seeds of Echinochloa crus-galli (L.) P. Beauv. var. crus-galli, Abutilon theophrasti medicus, and Amaranthus retroflexus were sowed in the pots, and the plants were grown for two weeks in a greenhouse. A wettable powder formulation prepared according to Formulation Example 1 was diluted with water, and the dilution was applied by foliar treatment by spraying with a small sprayer over the whole plant from the upper part, in an amount equivalent to 1000 liters per hectare, such that 1000 g of the active ingredient was applied per hectare. Thereafter, the plants were grown in a greenhouse, and on the 14th day after the treatment, the herbicidal effects were investigated according to the criteria described in Table 71 shown above.

[6] = test system: Echinochloa crus-galli (L.) P. Beauv. var. crus-galli; test: as above; conditions: 1000 g active ingredient per hectare, 14th day after treatment
Protocol: as §3

[7] = test system: Abutilon theophrasti medicus; test: as above; conditions: 1000 g active ingredient per hectare, 14th day after treatment
Protocol: as §3

Amaranthus retroflexus [8] = test: Test Example 2: herbicidal effects in farmland soil treatment; conditions: 1000 g active ingredient per hectare, 21st day after treatment
Protocol: as §3, with “of” for “of Echinochloa crus-galli (L.) P. Beauv. var. crus-galli,”, “medicus” for “medicus,”, “soil was covered.” for “the plants were grown for two weeks in a greenhouse.”, “uniformly sprayed on the soil surface” for “applied by foliar treatment by spraying”, “sprayer,” for “sprayer over the whole plant from the upper part,”, “21st” for “14th”

[9] = test system: Abutilon theophrasti medicus; test: as above; conditions: 1000 g active ingredient per hectare, 21st day after treatment
Protocol: as §3, with “of” for “of Echinochloa crus-galli (L.) P. Beauv. var. crus-galli,”, “medicus” for “medicus,”, “soil was covered.” for “the plants were grown for two weeks in a greenhouse.”, “uniformly sprayed on the soil surface” for “applied by foliar treatment by spraying”, “sprayer,” for “sprayer over the whole plant from the upper part,”, “21st” for “14th”

Setaria viridis [10] = test: Test Example 3: herbicidal effects in farmland foliar treatment; conditions: 1000 g active ingredient per hectare, 14th day after treatment

O=C1CCCC(O)=C1C(=O)c1cnccn1 [Comparative compound A, reference compound]
Herbicidal effect index, Echinochloa crus-galli (Echinochloa crus-galli): 5 | Herbicidal effect index, Scirpus juncoides [1]: 0 | Herbicidal effect index, Monochoria vaginalis [2]: 0 | Herbicidal effect index, Echinochloa oryzicola [3]: 2 | Herbicidal effect index, Setaria viridis (Setaria viridis [4]): 1 | Herbicidal effect index, Amaranthus retroflexus (Amaranthus retroflexus [5]): 1 | Herbicidal effect index, Echinochloa crus-galli [6]: 0 | Herbicidal effect index, Abutilon theoprasti [7]: 2 | Herbicidal effect index, Amaranthus retroflexus (Amaranthus retroflexus [8]): 0 | Herbicidal effect index, Abutilon thophrasti [9]: 1 | Herbicidal effect index, Setaria viridis (Setaria viridis [10]): 0

O=C1CCCC(O)=C1C(=O)c1ccc2ccccc2n1 [Comparative compound B, reference compound]
Herbicidal effect index, Echinochloa crus-galli (Echinochloa crus-galli): 3 | Herbicidal effect index, Scirpus juncoides [1]: 0 | Herbicidal effect index, Monochoria vaginalis [2]: 0 | Herbicidal effect index, Echinochloa oryzicola [3]: 0 | Herbicidal effect index, Setaria viridis (Setaria viridis [4]): 0 | Herbicidal effect index, Amaranthus retroflexus (Amaranthus retroflexus [5]): 1 | Herbicidal effect index, Echinochloa crus-galli [6]: 0 | Herbicidal effect index, Abutilon theoprasti [7]: 5 | Herbicidal effect index, Amaranthus retroflexus (Amaranthus retroflexus [8]): 2 | Herbicidal effect index, Abutilon thophrasti [9]: 2 | Herbicidal effect index, Setaria viridis (Setaria viridis [10]): 0

CC1(C)CC(=O)C(C(=O)c2cnc3ccccc3n2)=C(O)C1 [Comparative compound C, reference compound]
Herbicidal effect index, Echinochloa crus-galli (Echinochloa crus-galli): 2 | Herbicidal effect index, Scirpus juncoides [1]: 1 | Herbicidal effect index, Monochoria vaginalis [2]: 2 | Herbicidal effect index, Echinochloa oryzicola [3]: 1 | Herbicidal effect index, Setaria viridis (Setaria viridis [4]): 0 | Herbicidal effect index, Amaranthus retroflexus (Amaranthus retroflexus [5]): 0 | Herbicidal effect index, Echinochloa crus-galli [6]: 0 | Herbicidal effect index, Abutilon theoprasti [7]: 4 | Herbicidal effect index, Amaranthus retroflexus (Amaranthus retroflexus [8]): 3 | Herbicidal effect index, Abutilon thophrasti [9]: 0 | Herbicidal effect index, Setaria viridis (Setaria viridis [10]): 0

CC1(C)CCC(=O)C(C(=O)c2cnc3ccccc3n2)=C1O [Comparative compound D, reference compound]
Herbicidal effect index, Echinochloa crus-galli (Echinochloa crus-galli): 2 | Herbicidal effect index, Scirpus juncoides [1]: 2 | Herbicidal effect index, Monochoria vaginalis [2]: 4 | Herbicidal effect index, Echinochloa oryzicola [3]: 1 | Herbicidal effect index, Setaria viridis (Setaria viridis [4]): 0 | Herbicidal effect index, Amaranthus retroflexus (Amaranthus retroflexus [5]): 1 | Herbicidal effect index, Echinochloa crus-galli [6]: 0 | Herbicidal effect index, Abutilon theoprasti [7]: 4 | Herbicidal effect index, Amaranthus retroflexus (Amaranthus retroflexus [8]): 3 | Herbicidal effect index, Abutilon thophrasti [9]: 0 | Herbicidal effect index, Setaria viridis (Setaria viridis [10]): 0

COc1ccc(-n2c(=O)c(C(=O)C3=C(O)CCCC3=O)cc3ccccc32)cc1 [I-56]
Herbicidal effect index, Scirpus juncoides [1]: 5 | Herbicidal effect index, Monochoria vaginalis [2]: 5 | Herbicidal effect index, Echinochloa oryzicola [3]: 5 | Herbicidal effect index, Amaranthus retroflexus (Amaranthus retroflexus [5]): 5 | Herbicidal effect index, Echinochloa crus-galli [6]: 3 | Herbicidal effect index, Abutilon theoprasti [7]: 5 | Herbicidal effect index, Setaria viridis (Setaria viridis [10]): 3

CCn1c(=O)c(C(=O)C2=C(O)CCCC2=O)cc2c(Cl)cccc21 [I-157]
Herbicidal effect index, Scirpus juncoides [1]: 3 | Herbicidal effect index, Monochoria vaginalis [2]: 4 | Herbicidal effect index, Echinochloa oryzicola [3]: 5

CCn1c(=O)c(C(=O)C2=C(O)CCCC2=O)cc2cccnc21 [II-3]
Herbicidal effect index, Scirpus juncoides [1]: 5 | Herbicidal effect index, Monochoria vaginalis [2]: 5 | Herbicidal effect index, Echinochloa oryzicola [3]: 5 | Herbicidal effect index, Amaranthus retroflexus (Amaranthus retroflexus [5]): 5 | Herbicidal effect index, Echinochloa crus-galli [6]: 5 | Herbicidal effect index, Abutilon theoprasti [7]: 5 | Herbicidal effect index, Setaria viridis (Setaria viridis [10]): 4

CCCn1c(=O)c(C(=O)C2=C(O)CCCC2=O)cc2cccnc21 [II-4]
Herbicidal effect index, Echinochloa crus-galli (Echinochloa crus-galli): 5 | Herbicidal effect index, Scirpus juncoides [1]: 5 | Herbicidal effect index, Monochoria vaginalis [2]: 5 | Herbicidal effect index, Echinochloa oryzicola [3]: 5 | Herbicidal effect index, Setaria viridis (Setaria viridis [4]): 4 | Herbicidal effect index, Amaranthus retroflexus (Amaranthus retroflexus [5]): 5 | Herbicidal effect index, Echinochloa crus-galli [6]: 5 | Herbicidal effect index, Abutilon theoprasti [7]: 5 | Herbicidal effect index, Amaranthus retroflexus (Amaranthus retroflexus [8]): 5 | Herbicidal effect index, Abutilon thophrasti [9]: 5 | Herbicidal effect index, Setaria viridis (Setaria viridis [10]): 4

CCOCCn1c(=O)c(C(=O)C2=C(O)CCCC2=O)cc2cccnc21 [II-15]
Herbicidal effect index, Echinochloa crus-galli (Echinochloa crus-galli): 5 | Herbicidal effect index, Scirpus juncoides [1]: 5 | Herbicidal effect index, Monochoria vaginalis [2]: 5 | Herbicidal effect index, Echinochloa oryzicola [3]: 5 | Herbicidal effect index, Setaria viridis (Setaria viridis [4]): 5 | Herbicidal effect index, Amaranthus retroflexus (Amaranthus retroflexus [5]): 5 | Herbicidal effect index, Echinochloa crus-galli [6]: 5 | Herbicidal effect index, Abutilon theoprasti [7]: 5 | Herbicidal effect index, Amaranthus retroflexus (Amaranthus retroflexus [8]): 5 | Herbicidal effect index, Abutilon thophrasti [9]: 5 | Herbicidal effect index, Setaria viridis (Setaria viridis [10]): 5

O=C1CCCC(O)=C1C(=O)c1cc2cccnc2n(Cc2ccccc2Cl)c1=O [II-28]
Herbicidal effect index, Scirpus juncoides [1]: 5 | Herbicidal effect index, Monochoria vaginalis [2]: 5 | Herbicidal effect index, Echinochloa oryzicola [3]: 5 | Herbicidal effect index, Amaranthus retroflexus (Amaranthus retroflexus [5]): 5 | Herbicidal effect index, Echinochloa crus-galli [6]: 4 | Herbicidal effect index, Abutilon theoprasti [7]: 5 | Herbicidal effect index, Setaria viridis (Setaria viridis [10]): 3

O=C1CCCC(O)=C1C(=O)c1cc2cccnc2n(Cc2cccc(Cl)c2)c1=O [II-29]
Herbicidal effect index, Scirpus juncoides [1]: 5 | Herbicidal effect index, Monochoria vaginalis [2]: 5 | Herbicidal effect index, Echinochloa oryzicola [3]: 5

O=C1CCCC(O)=C1C(=O)c1cc2cccnc2n(Cc2ccc(Cl)cc2)c1=O [II-30]
Herbicidal effect index, Scirpus juncoides [1]: 5 | Herbicidal effect index, Monochoria vaginalis [2]: 5 | Herbicidal effect index, Echinochloa oryzicola [3]: 4

COc1cccc(Cn2c(=O)c(C(=O)C3=C(O)CCCC3=O)cc3cccnc32)c1 [II-38]
Herbicidal effect index, Scirpus juncoides [1]: 5 | Herbicidal effect index, Monochoria vaginalis [2]: 5 | Herbicidal effect index, Echinochloa oryzicola [3]: 5

COc1ccc(Cn2c(=O)c(C(=O)C3=C(O)CCCC3=O)cc3cccnc32)cc1 [II-39]
Herbicidal effect index, Scirpus juncoides [1]: 5 | Herbicidal effect index, Monochoria vaginalis [2]: 5 | Herbicidal effect index, Echinochloa oryzicola [3]: 5 | Herbicidal effect index, Amaranthus retroflexus (Amaranthus retroflexus [5]): 5 | Herbicidal effect index, Echinochloa crus-galli [6]: 5 | Herbicidal effect index, Abutilon theoprasti [7]: 5 | Herbicidal effect index, Setaria viridis (Setaria viridis [10]): 3

O=C1CCCC(O)=C1C(=O)c1cc2cccnc2n(-c2cccc(F)c2)c1=O [II-43]
Herbicidal effect index, Echinochloa crus-galli (Echinochloa crus-galli): 5 | Herbicidal effect index, Scirpus juncoides [1]: 5 | Herbicidal effect index, Monochoria vaginalis [2]: 5 | Herbicidal effect index, Echinochloa oryzicola [3]: 5 | Herbicidal effect index, Setaria viridis (Setaria viridis [4]): 5 | Herbicidal effect index, Amaranthus retroflexus (Amaranthus retroflexus [5]): 5 | Herbicidal effect index, Echinochloa crus-galli [6]: 5 | Herbicidal effect index, Abutilon theoprasti [7]: 5 | Herbicidal effect index, Amaranthus retroflexus (Amaranthus retroflexus [8]): 5 | Herbicidal effect index, Abutilon thophrasti [9]: 5 | Herbicidal effect index, Setaria viridis (Setaria viridis [10]): 5

Cc1ccc2cc(C(=O)C3=C(O)CCCC3=O)c(=O)n(C)c2n1 [II-121]
Herbicidal effect index, Scirpus juncoides [1]: 5 | Herbicidal effect index, Monochoria vaginalis [2]: 5 | Herbicidal effect index, Echinochloa oryzicola [3]: 5 | Herbicidal effect index, Amaranthus retroflexus (Amaranthus retroflexus [5]): 5 | Herbicidal effect index, Echinochloa crus-galli [6]: 4 | Herbicidal effect index, Abutilon theoprasti [7]: 5 | Herbicidal effect index, Setaria viridis (Setaria viridis [10]): 3

CC(C)c1ccc2cc(C(=O)C3=C(O)CCCC3=O)c(=O)n(C)c2n1 [II-126]
Herbicidal effect index, Scirpus juncoides [1]: 4 | Herbicidal effect index, Monochoria vaginalis [2]: 5 | Herbicidal effect index, Echinochloa oryzicola [3]: 3

O=C1CCCC(O)=C1C(=O)c1cc2ccc(C(F)(F)F)nc2n(-c2ccccc2)c1=O [II-138]
Herbicidal effect index, Scirpus juncoides [1]: 5 | Herbicidal effect index, Monochoria vaginalis [2]: 5 | Herbicidal effect index, Echinochloa oryzicola [3]: 5 | Herbicidal effect index, Amaranthus retroflexus (Amaranthus retroflexus [5]): 3 | Herbicidal effect index, Echinochloa crus-galli [6]: 5 | Herbicidal effect index, Abutilon theoprasti [7]: 5 | Herbicidal effect index, Setaria viridis (Setaria viridis [10]): 5

CCc1ccc2cc(C(=O)C3=C(O)CCCC3=O)c(=O)n(C)c2n1 [II-434]
Herbicidal effect index, Scirpus juncoides [1]: 5 | Herbicidal effect index, Monochoria vaginalis [2]: 5 | Herbicidal effect index, Echinochloa oryzicola [3]: 5

O=C1CCCC(O)=C1C(=O)c1cc2ccc(C(F)F)nc2n(-c2ccc3c(c2)OCCO3)c1=O [II-442]
Herbicidal effect index, Scirpus juncoides [1]: 5 | Herbicidal effect index, Monochoria vaginalis [2]: 5 | Herbicidal effect index, Echinochloa oryzicola [3]: 5

O=C1CCCC(O)=C1C(=O)c1cc2ncccc2n(-c2ccccc2)c1=O [III-41]
Herbicidal effect index, Scirpus juncoides [1]: 4 | Herbicidal effect index, Monochoria vaginalis [2]: 4 | Herbicidal effect index, Echinochloa oryzicola [3]: 4
